Measured values taken from ChEMBL document CHEMBL5131529, “KRAS Inhibitors and Target Engagement Technology: From Undruggable to Druggable Targets in Cancer Therapeutics” (ACS Med Chem Lett, 2022).

Key:
[1] = molecular target: T1, GTPase KRas (Homo sapiens, UniProt P01116, G12C); assay: Inhibition of BODIPY loaded KRAS G12C mutant (unknown origin) assessed as inhibition of GDP-GTP exchange rate in presence of SOS1/GppNHp incubated for 2 hr by BODIPY fluorescence assay
[2] = molecular target: T1, GTPase KRas; assay: Inhibition of KRAS G12C mutant in human MIA PaCa-2 cells assessed as reduction in ERK phosphorylation incubated for 2 to 4 hrs by HTRF assay; format: cell-based

T1 sequence (P01116 whole entry G12C): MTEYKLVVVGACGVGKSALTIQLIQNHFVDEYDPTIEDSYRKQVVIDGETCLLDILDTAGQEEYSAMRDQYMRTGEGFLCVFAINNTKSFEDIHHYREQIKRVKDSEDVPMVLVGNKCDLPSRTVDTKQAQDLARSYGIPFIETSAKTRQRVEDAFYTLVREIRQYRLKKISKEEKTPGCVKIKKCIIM

Row | SMILES | IC50 [1] | IC50 [2] | IC50 ([2]; mia paca-2)
1 | C=Cc1ncc2n1CCN(c1nc(OCCN3CCOCC3)nc3c(F)c(-c4cc(O)cc5ccccc45)c(Cl)cc13)C2 | 0.1 µM | 5 µM | –
2 | C=Cc1ncc2n1CCN(c1nc(=O)n(-c3c(C)ccnc3C(C)C)c3nc(-c4c(O)cccc4F)c(F)cc13)C2 | 0.1 µM | 5 µM | 5 µM
3 | C=Cc1ncc2n1CCN(c1nc(OCC3CCCN3C)nc3c(F)c(-c4c(C)ccc5[nH]ncc45)c(Cl)cc13)C2 (stereo not drawn) | 0.1 µM | 5 µM | –
4 | C=Cc1ncc2n1CCN(c1nc(OC3CCCN(C)C3)nc3c(F)c(-c4cc(O)cc5ccccc45)c(Cl)cc13)C2 (stereo not drawn) | 0.1 µM | 5 µM | –
5 | C=Cc1ncc2n1CCN(c1nc(OC3CCN(C)CC3)nc3c(F)c(-c4cc(O)cc5ccccc45)c(Cl)cc13)C2 | 0.1 µM | 5 µM | –
6 | C=Cc1ncc2n1CCN(c1nc(OCC3CCCN3C)nc3c(F)c(-c4c(O)cccc4F)c(Cl)cc13)C2 (stereo not drawn) | 0.1 µM | 5 µM | –
7 | C=Cc1ncc2n1CCN(c1nc(OC[C@@H]3CCCN3C)nc3c(F)c(-c4cc(O)cc5ccccc45)c(Cl)cc13)C2 | 0.1 µM | 1 µM | –
8 | C=Cc1ncc2n1CCN(c1nc(=O)n(C(C)C)c3nc(-c4c(O)cccc4F)c(F)cc13)C2 | 0.1 µM | 5 µM | –
9 | C=Cc1ncc2n1CCN(c1nc(OCC3CCCN3C)nc3c(F)c(-c4cc(O)cc5ccccc45)c(Cl)cc13)C2 (stereo not drawn) | ≤ 0.1 µM | 1 µM | –
10 | C=Cc1ncc2n1CCN(c1nc(=O)n(CC3CC3)c3nc(-c4c(O)cccc4F)c(F)cc13)C2 | 0.1 µM | 5 µM | –
11 | C=Cc1ncc2n1CCN(c1nc(OCCN(C)C)nc3c(F)c(-c4cc(O)cc5ccccc45)c(Cl)cc13)C2 | 0.1 µM | 1 µM | –
